Consider 2 compounds from patent publication US5889028A, “Colonic delivery of nicotine to treat inflammatory bowel disease” (priority 1997, dated 1999).

“Also recorded” adds a separate entry of the source.

The conditions of series [1]: systemic cotinine; cited from earlier work.
For series [2] the following is noted: nicotine base; cited from earlier work.
The conditions of series [3]: in vivo.
For series [4] the following is noted: cited from earlier work.
Series [5] can be described thus: Example 1: nicotine pharmacokinetics after IV, oral and rectal enema administration in healthy volunteers. The method, then:
Intravenous nicotine was prepared using a nicotine base, supplied as the tartrate salt (Fisher Scientific/Eastman Kodak Company, Rochester, N.Y.). Solutions for injection were made up by combining 1.5 mg nicotine base (4.44 mg tartrate salt) in 100 ml of 0.9% sterile normal saline to form a 15 mcg/mL solution. The intravenous solution was filtered through a 0.22 micron filter into a sterile container and under sterile conditions. The solution was then cultured for organisms, assayed for endotoxin, and chemically analyzed prior to infusion to assure stable nicotine concentration. These samples were then be stored in sealed vials until the time of administration.
Thirty paid human volunteers were admitted to the pharmacokinetic study after giving informed consent to a protocol approved by the institutional review board at the Mayo Clinic, Rochester, Minn. The subjects ranged in age from 21-56 and their body weights ranged from 45 to 153 Kg. […]
Each subject underwent 2 investigations (IV and non-IV) of 8 hours duration at least 1 week apart. […] Plasma concentrations of nicotine were determined by gas chromatography/mass spectrometry as described by Baskin et al. (Clin. Chem., 31:76-80 (1991)).
For this study, the maximum plasma nicotine concentration (Cmax) and the time to reach Cmax (Tmax) were defined as the highest measured plasma concentrations and the time of the sample, respectively.

The conditions of series [6]: Benowitz et al., cited from earlier work.
A further series in a line: clinical. As to conditions: in vivo.
For series [7] the following is noted: gum and patch papers; cited from earlier work.
Series [8] is described as follows: Example 1: side effects (questionnaire) versus plasma nicotine concentration. The class given is in vivo, human. As for the experimental part: Intraindividual side effects occurred during each study, as determined by a questionnaire filled out every 30 minutes, closely correlated with plasma nicotine concentrations. However, the threshold above which symptoms appeared varied from individual to individual with the nicotine concentration at which side effects first appeared ranging from 2.4 ng/mL to 9.9 ng/mL (although some subjects had nicotine concentrations of >11 ng/mL without symptoms).

As for `CN1C(=O)CC[C@H]1c1cccnc1` [cotinine], the “activity relative to nicotine” value in series [1] was “less active metabolite than nicotine”.

Consider `CN1CCCC1c1cccnc1` (stereo not drawn) [nicotine], for which the “absorption through mucous membranes and skin” value in series [2] is “readily absorbed through mucous membranes and intact skin”. In [3], the “combination with 5-ASA, sulphasalazine, corticosteroids or budesonide” value is “appears to show a synergistic effect”; the “efficacy compared with high dosage transdermal patch” value is “at least as efficacious as high dosage transdermal patch”; the “remission (clinical response)” value is “up to 70%”. Further, in series [4] (colonic mucus synthesis), the effect on mucus entry is listed as “appears to increase mucus synthesis to levels observed in healthy subjects”. For the same compound, in series [4] (patients with ulcerative colitis), the “effect on rectal blood flow” value is on record as “can reduce rectal blood flow to the normal range”. Further, the “effect on mucosal production of eicosanoids” value in series [4] (prostaglandin E, 6-keto-PGF1a, leukotrienes) is reported as “appears to reduce mucosal production of eicosanoids”. In addition, the mucus thickness entry in series [4] (rabbits, high doses, versus controls) is “greater mucus thickness as compared to controls”. Besides, the “bioavailability / tolerability in words” value in series [5] was “low bioavailability and was well tolerated; also recorded: low or negligible bioavailability and was well tolerated”. For the same compound, the “mean bioavailability for the oral dose” value in series [6] was 44 (9%). Also, in series [6] (IV, heavy smokers), the CLb is reported as 66 (8 L/hr), the T1/2 is 203 (61 min.) and the Vdss is 3.0 (0.7 L/Kg). In “clinical”, this compound yielded a Fa of about 20%. In series [7], the “general side effects of nicotine administration” value is “nausea, vomiting, headaches, insomnia, somnolence, diaphoresis, pre-syncope and tremor”. In addition, the “nicotine concentration without symptoms” value in series [8] (some subjects) is on record as over 11 ng/mL. The side effects observed entry in series [8] (when side effects occurred, variable frequency) is “nausea, lightheadedness, and diaphoresis”.
